The values that follow come from PubChem BioAssay (NCI).

Where “and” joins values, the source holds several entries; their conditions need not be identical. Equal values may be shown once.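 The compound was tested at five concentrations on cells cultured in 96-well plates, with a 48-hour exposure period. GI50 is the concentration that inhibits growth by half. TGI is the concentration that stops growth completely.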 Bounds are passed on as bounds.

Test systems include HOP-62 NSCLC; ACHN renal; A498 renal; U251 CNS; MCF7 breast; NCI-H460 lung; SK-MEL-5 melanoma; HCT-116 colon; OVCAR-8 ovarian; SN12C renal.
Experiment in all cases: NCI-60 cell line screen, 48 h

Consider `COC(=O)C(Cc1ccccc1)NC(=O)NC(=O)NC(=O)CI` (stereo not given), for which the GI50 was 18 µM in the assay on HOP-62 NSCLC; 1.85 µM with ACHN renal; 18.4 µM in the assay with A498 renal; 16.6 µM with U251 CNS; 4.2 µM in the assay on MCF7 breast; 22.6 µM in the assay with NCI-H460 lung. Further, the GI50 with SK-MEL-5 melanoma is 15.5 µM; with HCT-116 colon it was 3.27 µM; in the assay on OVCAR-8 ovarian it was 4.3 µM; with SN12C renal it was 20.3 µM. Further, the TGI in the assay on HOP-62 NSCLC stood at 33.7 µM; with ACHN renal, 3.62 µM; in the assay on A498 renal, 33.2 µM; in the assay on U251 CNS, 30.5 µM; in the assay with MCF7 breast, 28.5 µM; in the assay with NCI-H460 lung it was 50.1 µM. The TGI was 29 µM in the assay on SK-MEL-5 melanoma, 11.1 µM with HCT-116 colon, 15.9 µM with OVCAR-8 ovarian and 53.3 µM with SN12C renal.
With `Cc1ccc(C2=NOC3=c4ccccc4=CSC3=C2c2ccc([N+](=O)[O-])cc2)cc1`, the GI50 with HOP-62 NSCLC is 13.6 µM; in the assay with ACHN renal, 13.8 µM; in the assay on A498 renal, 10.8 µM; in the assay on U251 CNS it was 10.3 µM; in the assay with MCF7 breast, 11.1 µM; in the assay on NCI-H460 lung, 16.9 µM. The GI50 with SK-MEL-5 melanoma is 11.4 µM; in the assay with HCT-116 colon, 3.35 µM; in the assay on OVCAR-8 ovarian it was 6.22 µM; in the assay on SN12C renal it was 18.3 µM. Also, the TGI in the assay on HOP-62 NSCLC was 55.8 µM; with ACHN renal, 61.4 µM; in the assay on A498 renal, 26.9 µM; in the assay with U251 CNS, 36.1 µM; in the assay on MCF7 breast, 88.8 µM; in the assay on NCI-H460 lung, more than 100 µM. Further, the TGI in the assay with SK-MEL-5 melanoma was 37.6 µM; in the assay on HCT-116 colon, more than 100 µM; in the assay with OVCAR-8 ovarian, 40.5 µM; with SN12C renal it was more than 100 µM.
For `N/C(=N\N=C\c1ccc(-c2ccccc2)cc1)N[N+](=O)[O-]`, the GI50 was 2.64 µM in the assay with HOP-62 NSCLC; more than 100 µM with ACHN renal; 0.418 µM with A498 renal; 3.05 µM with U251 CNS; 1.47 µM with MCF7 breast; 2.98 µM with NCI-H460 lung. Besides, the GI50 is 3.52 µM in the assay with SK-MEL-5 melanoma, 1.97 µM in the assay on HCT-116 colon, 5.61 µM with OVCAR-8 ovarian and 7.3 µM in the assay with SN12C renal. Further, the TGI in the assay on HOP-62 NSCLC was more than 100 µM; in the assay with ACHN renal, more than 100 µM; in the assay on A498 renal, 7.58 µM; in the assay with U251 CNS, more than 100 µM; in the assay on MCF7 breast, more than 100 µM; with NCI-H460 lung it was more than 100 µM. For the same compound, the TGI in the assay with SK-MEL-5 melanoma, with HCT-116 colon, with OVCAR-8 ovarian and in the assay on SN12C renal was more than 100 µM each time.
Regarding `O=C1C=C(Br)c2c(-c3ccccc3)oc3cccc1c23`, the TGI in the assay with HOP-62 NSCLC, in the assay with ACHN renal, in the assay with A498 renal, in the assay on U251 CNS, in the assay on MCF7 breast and with NCI-H460 lung was more than 100 µM in each case. The TGI in the assay with SK-MEL-5 melanoma, in the assay on HCT-116 colon, in the assay with OVCAR-8 ovarian and in the assay with SN12C renal was more than 100 µM in each case.
For `O=C(N/N=C/c1ccc2c(c1)CCC2)c1ccccc1O`, the TGI with HOP-62 NSCLC was 38 µM; in the assay with ACHN renal it was 34.8 µM; with A498 renal it was 36.8 µM; with U251 CNS it was 33.7 µM; in the assay with MCF7 breast it was 34 µM; in the assay with NCI-H460 lung, 63.2 µM. The TGI with SK-MEL-5 melanoma was more than 100 µM; in the assay on HCT-116 colon, 43.7 µM; in the assay with OVCAR-8 ovarian, 71.9 µM; with SN12C renal, 62.7 µM.
For `CC(=O)NC1=C(OS(=O)(=O)c2ccc(C)cc2)CN(C)C1=O`, the TGI in the assay on HOP-62 NSCLC came out at 11.9 µM; in the assay with ACHN renal, 12.3 µM; with A498 renal, 18 µM; in the assay with U251 CNS, 8.75 µM; in the assay with MCF7 breast it was 11.7 µM; in the assay with NCI-H460 lung it was 7.77 µM. The TGI was found to be 18.4 µM with SK-MEL-5 melanoma, 12 µM in the assay with HCT-116 colon, 20.3 µM in the assay on OVCAR-8 ovarian and 16.4 µM in the assay on SN12C renal.
As for `O=C(C1CCCCC1)[C@@H]1[C@]2(C(=O)NC3CCCCC32)[C@@H]2CCCN2[C@@]12C(=O)NC1CCC(Cl)CC12` (stereo not given in full), the GI50 with HOP-62 NSCLC was 123 µM; in the assay with ACHN renal, 103 µM; in the assay with A498 renal, 130 µM; in the assay on U251 CNS, 148 µM; in the assay with MCF7 breast, 41.8 µM; in the assay with NCI-H460 lung it was 134 µM. In addition, the GI50 with SK-MEL-5 melanoma was 110 µM; in the assay with HCT-116 colon it was 71.6 µM; with OVCAR-8 ovarian, 162 µM; in the assay with SN12C renal, 61.2 µM. Besides, the TGI with HOP-62 NSCLC was determined as 287 µM; in the assay on ACHN renal it was 222 µM; in the assay with A498 renal it was 265 µM; in the assay with U251 CNS, 316 µM; in the assay with MCF7 breast, 185 µM; in the assay on NCI-H460 lung, 308 µM. In addition, the TGI in the assay with SK-MEL-5 melanoma is 234 µM; with HCT-116 colon, 208 µM; with OVCAR-8 ovarian, 394 µM; in the assay on SN12C renal, 197 µM.
`O=C1C(=O)c2c(nc3ccc(Cl)cn23)-c2ccccc21`: the GI50 is 0.666 µM in the assay on HOP-62 NSCLC; 0.591 µM with ACHN renal; 1.64 µM with A498 renal; 0.274 µM with U251 CNS; 0.167 µM with MCF7 breast; 0.538 µM with NCI-H460 lung. Also, the GI50 was 0.161 µM in the assay on SK-MEL-5 melanoma, 0.311 µM in the assay with HCT-116 colon, 0.471 µM with OVCAR-8 ovarian and 0.219 µM in the assay with SN12C renal. Also, the TGI was 1.66 µM in the assay on HOP-62 NSCLC; 1.88 µM in the assay on ACHN renal; 3.11 µM in the assay with A498 renal; 0.721 µM in the assay with U251 CNS; 0.356 µM with MCF7 breast; 2.31 µM in the assay with NCI-H460 lung. Further, the TGI with SK-MEL-5 melanoma was found to be 0.309 µM; with HCT-116 colon, 3.73 µM; with OVCAR-8 ovarian, 1.91 µM; with SN12C renal it was 0.567 µM.
With `O=C(O)C/C=C/CC(=O)O`, the TGI in the assay with HOP-62 NSCLC, in the assay on ACHN renal, with A498 renal, in the assay on U251 CNS, in the assay on MCF7 breast and with NCI-H460 lung was more than 100 µM each time. The TGI with SK-MEL-5 melanoma, in the assay on HCT-116 colon, in the assay with OVCAR-8 ovarian and in the assay with SN12C renal was more than 100 µM in each case.
Consider `CNC(=O)OCc1c(COC(=O)NC)c(C)n(-c2ccc(Br)cc2)c1C`, for which the TGI in the assay on HOP-62 NSCLC worked out at 29.1 µM; in the assay with ACHN renal it was 12.7 µM; in the assay with A498 renal, 3.21 µM; in the assay on U251 CNS it was 25.5 µM; with MCF7 breast, 25.9 µM; in the assay with NCI-H460 lung, 24.1 µM. The TGI in the assay with SK-MEL-5 melanoma amounted to 28.1 µM; in the assay with HCT-116 colon, 25.8 µM; in the assay on OVCAR-8 ovarian, 24.8 µM; in the assay with SN12C renal, 32.8 µM.
For `Cc1ccc(C(=O)Nc2cccc(C(F)(F)F)c2)cc1Nc1nc(-c2cccnc2)nc2c1cnn2C`, the GI50 in the assay with HOP-62 NSCLC was 2.62 µM and 1.04 µM; in the assay with ACHN renal it was 2.13 µM and 1.08 µM; in the assay with A498 renal it was 1.6 µM; in the assay with U251 CNS it was 3.66 µM and 2.9 µM; in the assay on MCF7 breast, 2.42 µM and 1.98 µM; with NCI-H460 lung, 2.84 µM and 2.54 µM. The GI50 with SK-MEL-5 melanoma was 1.74 µM and 1.24 µM; with HCT-116 colon, 0.917 µM and 0.377 µM; in the assay on OVCAR-8 ovarian, 3 µM and 2.34 µM; with SN12C renal it was 2.45 µM and 1.7 µM. Also, the TGI is 15.2 µM and > 10 µM in the assay on HOP-62 NSCLC; 11.1 µM and 7.4 µM in the assay on ACHN renal; 5.01 µM in the assay on A498 renal; 22 µM and > 10 µM in the assay on U251 CNS; 7.65 µM and 6.24 µM in the assay on MCF7 breast; 12.5 µM and 7.19 µM in the assay with NCI-H460 lung. Besides, the TGI in the assay with SK-MEL-5 melanoma is 4.06 µM and 2.96 µM; in the assay on HCT-116 colon it was 2.87 µM and 3.67 µM; in the assay on OVCAR-8 ovarian it was 39.7 µM and > 10 µM; in the assay on SN12C renal it was 13.8 µM and > 10 µM.
Take `CC1=C(CCC(C)N(C)Cc2ccc(OCCCN3CCCC3)cc2)C(C)(C)CCC1` (stereo not given): the GI50 in the assay on HOP-62 NSCLC was 3.54 µM; in the assay with ACHN renal it was 3.29 µM; in the assay with A498 renal it was 10.4 µM; in the assay with U251 CNS, 2.46 µM; in the assay with MCF7 breast, 1.63 µM; in the assay with NCI-H460 lung it was 3.02 µM. Also, the GI50 with SK-MEL-5 melanoma was 1.75 µM; with HCT-116 colon, 2.82 µM; in the assay with OVCAR-8 ovarian, 5.75 µM; in the assay with SN12C renal it was 11 µM. In addition, the TGI with HOP-62 NSCLC is 17.5 µM; with ACHN renal, 11.3 µM; in the assay with A498 renal it was 22.7 µM; in the assay with U251 CNS, 6.38 µM; in the assay on MCF7 breast, 3.65 µM; in the assay on NCI-H460 lung, 8.81 µM. Besides, the TGI came out at 3.15 µM in the assay with SK-MEL-5 melanoma, 12.1 µM with HCT-116 colon, 19.9 µM in the assay on OVCAR-8 ovarian and 24.8 µM with SN12C renal.
Turning to `C[C@]12CC[C@H]3[C@@H](CCC4=CC(=O)CC[C@@H]43)[C@@H]1CC[C@@H]2OC(=O)CCc1ccccc1`, the GI50 in the assay on HOP-62 NSCLC is 20.5 µM; in the assay on ACHN renal, 18.9 µM; in the assay with A498 renal, 16.2 µM; in the assay with U251 CNS it was 15.1 µM; in the assay on MCF7 breast, 15.3 µM; in the assay with NCI-H460 lung, 17.1 µM. Also, the GI50 in the assay on SK-MEL-5 melanoma is 13 µM; in the assay with HCT-116 colon it was 19.3 µM; in the assay with OVCAR-8 ovarian, 21.5 µM; in the assay on SN12C renal, 15.2 µM. In addition, the TGI worked out at 39.6 µM with HOP-62 NSCLC; 45.1 µM in the assay with ACHN renal; 30.8 µM with A498 renal; 28.4 µM in the assay on U251 CNS; 31.1 µM in the assay with MCF7 breast; 35.6 µM in the assay with NCI-H460 lung. The TGI came out at 26 µM with SK-MEL-5 melanoma, 43.9 µM in the assay on HCT-116 colon, 49.3 µM in the assay on OVCAR-8 ovarian and 29.7 µM with SN12C renal.
